Laboratory results from paper PMC6856039 (Investigational New Drugs, 2019).
Read-outs that look alike come from different tables or passages of the source. Marks after values point to notes of the source that are not given here.

Key:
[1] = Procedure: PK parameters were evaluated on Day 1 and Day 15.
The planned sample size was 300 patients maximum, including 54 patients in the dose escalation phase, seven patients at each level of the first stage of the expansion phase, 20 patients at each level in the second stage of the expansion phase, and in the extension phase, 100, 40, 20, and 10 patients in Cohorts A, B, C, and D, respectively. The main analysis sets in each study phase are defined in Supplementary Table 1 (Online Resource 3). Safety and efficacy data are summarized using descriptive statistics. PK parameters were calculated according to the non-compartmental method. ORR, DCR, and median PFS were calculated along with 95% CIs. The statistical software used to perform statistical analyses was SAS version 9.2 (SAS Inc., Cary, NC, USA, RRID: SCR_008567). For the PK analysis, Phoenix® WinNonlin® Ver. 6.3 and 6.4 (Certara, Princeton, NJ, USA) was used.

[2] = tested on: T790M-positive NSCLC patients; type: in vivo, human; conditions: for median PFS / Best overall response: Not evaluable / Best overall response: Partial response / Best overall response: Progression disease / Best overall response: Stable disease / Disease control rate / Objective response rate: T790M-positive
Description: To assess the EGFR T790M mutation tumor status, mandatorily collected plasma from patients was processed, and isolated circulating cell-free DNA (cfDNA) was submitted for laboratory testing (Fluorescence Resonance Energy Transfer-based Preferential Formation Assay [F-PHFA] method) by central review. In some patients, collected tumor biopsies were submitted for EGFR genotyping (Therascreen® EGFR RGQ PCR kit [Qiagen, Venlo, Netherlands]).
Antitumor efficacy was based on objective tumor assessments according to the Response Evaluation Criteria in Solid Tumors criteria (version 1.1, 2009). Computed tomography scans were performed at baseline, every 6 weeks after starting administration, and at the time of discontinuation. The ORR, DCR, and PFS at each phase were assessed according to dose level and regimen. ORR was defined as the proportion of patients in which the best overall response was determined to be CR or PR and was calculated in patients with measurable lesions. DCR was defined as the proportion of patients in which the best overall response was determined to be CR, PR, or stable disease. PFS was defined as the median time from enrollment to PD or death from any cause.

[3] = BID 8 mg/day, cycle 1, day 15, n = 9
[4] = BID 12 mg/day, cycle 1, day 15, n = 4
[5] = QD 4 mg/day, cycle 1, day 15, n = 3
[6] = QD 8 mg/day, cycle 1, day 15, n = 9
[7] = QD 10 mg/day, cycle 1, day 15, n = 7
[8] = QD 12 mg/day, cycle 1, day 15, n = 2
[9] = QD 16 mg/day, cycle 1, day 15, n = 1

C=CC(=O)N[C@H]1CCc2c(-c3cnc4ccccc4c3)c3c(N)ncnc3n2C1 [TAS-121]
AUC0-12h, mean (standard deviation) [1, 3]: 1520 (520) ng•h/mL | Cmax, mean (standard deviation) [1, 3]: 290 (104) ng/mL | T1/2, mean (standard deviation) [1, 3]: 5.11 (1.48) h | Tmax, median (minimum–maximum) [1, 3]: 1.00 (0.50–1.00) h | AUC0-12h, mean (standard deviation) [1, 4]: 5860 (1460) ng•h/mL | Cmax, mean (standard deviation) [1, 4]: 772 (201) ng/mL | T1/2, mean (standard deviation) [1, 4]: 8.84 (3.31) h | Tmax, median (minimum–maximum) [1, 4]: 2.00 (1.00–3.00) h | AUC0-24h, mean (standard deviation) [1, 5]: 2670 (1110) ng•h/mL | Cmax, mean (standard deviation) [1, 5]: 304 (13) ng/mL | T1/2, mean (standard deviation) [1, 5]: 8.83 (2.88) h | Tmax, median (minimum–maximum) [1, 5]: 1.00 (1.00–1.00) h | AUC0-24h, mean (standard deviation) [1, 6]: 4860 (2520) ng•h/mL | Cmax, mean (standard deviation) [1, 6]: 569 (312) ng/mL | T1/2, mean (standard deviation) [1, 6]: 8.60 (2.49) h | Tmax, median (minimum–maximum) [1, 6]: 1.00 (0.50–2.00) h | AUC0-24h, mean (standard deviation) [1, 7]: 8040 (4190) ng•h/mL | Cmax, mean (standard deviation) [1, 7]: 900 (376) ng/mL | T1/2, mean (standard deviation) [1, 7]: 8.61 (1.73) h | Tmax, median (minimum–maximum) [1, 7]: 2.00 (0.75–4.00) h | T1/2 ([1]; QD 12 mg/day, cycle 1, day 15, based on one patient): 8.12 (NA)^b h | AUC0-24h, mean [1, 8]: 9500 (NA) ng•h/mL | Cmax, mean [1, 8]: 1180 (NA) ng/mL | Tmax, median (minimum–maximum) [1, 8]: 1.12 (1.00–1.23) h | AUC0-24h [1, 9]: 5870 (NA) ng•h/mL | Cmax [1, 9]: 825 (NA) ng/mL | T1/2 [1, 9]: 6.44 (NA) h | Tmax [1, 9]: 2.00 (NA) h | objective response rate (ORR) ([2]; T790M-positive patients with measurable lesions, n = 86, regardless of the dosage): 28% | objective response rate (ORR) ([2]; T790M-positive patients, 8 mg/day BID): 39% | median PFS ([2]; 4 mg/day QD, 23 patients/17 events): 165 days | Best overall response: Not evaluable ([2]; 4 mg/day QD, N = 15): 1 (6.7) n (%) | Best overall response: Partial response ([2]; 4 mg/day QD, N = 15): 4 (26.7) n (%) | Best overall response: Progression disease ([2]; 4 mg/day QD, N = 15): 7 (46.7) n (%) | Best overall response: Stable disease ([2]; 4 mg/day QD, N = 15): 3 (20.0) n (%) | Disease control rate ([2]; 4 mg/day QD, N = 15): 7 (46.7) n (%) | Objective response rate ([2]; 4 mg/day QD, N = 15): 4 (26.7) n (%) | median PFS ([2]; 8 mg/day BID, 36 patients/21 events): 253 days | Best overall response: Not evaluable ([2]; 8 mg/day BID, N = 33): 1 (3.0) n (%) | Best overall response: Partial response ([2]; 8 mg/day BID, N = 33): 13 (39.4) n (%) | Best overall response: Progression disease ([2]; 8 mg/day BID, N = 33): 8 (24.2) n (%) | Best overall response: Stable disease ([2]; 8 mg/day BID, N = 33): 11 (33.3) n (%) | Disease control rate ([2]; 8 mg/day BID, N = 33): 24 (72.7) n (%) | Objective response rate ([2]; 8 mg/day BID, N = 33): 13 (39.4) n (%) | median PFS ([2]; 8 mg/day QD, 33 patients/25 events): 125 days | Best overall response: Not evaluable ([2]; 8 mg/day QD, N = 28): 0 (0.0) n (%) | Best overall response: Partial response ([2]; 8 mg/day QD, N = 28): 6 (21.4) n (%) | Best overall response: Progression disease ([2]; 8 mg/day QD, N = 28): 11 (39.3) n (%) | Best overall response: Stable disease ([2]; 8 mg/day QD, N = 28): 11 (39.3) n (%) | Disease control rate ([2]; 8 mg/day QD, N = 28): 17 (60.7) n (%) | Objective response rate ([2]; 8 mg/day QD, N = 28): 6 (21.4) n (%) | Best overall response: Not evaluable ([2]; 10 mg/day QD, N = 7): 0 (0.0) n (%) | Best overall response: Partial response ([2]; 10 mg/day QD, N = 7): 1 (14.3) n (%) | Best overall response: Progression disease ([2]; 10 mg/day QD, N = 7): 3 (42.9) n (%) | Best overall response: Stable disease ([2]; 10 mg/day QD, N = 7): 3 (42.9) n (%) | Disease control rate ([2]; 10 mg/day QD, N = 7): 4 (57.1) n (%) | Objective response rate ([2]; 10 mg/day QD, N = 7): 1 (14.3) n (%) | median PFS ([2]; 10 mg/day QD, seven patients/three events): 401 days | Best overall response: Not evaluable ([2]; 12 mg/day BID, N = 3): 1 (33.3) n (%) | Best overall response: Partial response ([2]; 12 mg/day BID, N = 3): 0 (0.0) n (%) | Best overall response: Progression disease ([2]; 12 mg/day BID, N = 3): 1 (33.3) n (%) | Best overall response: Stable disease ([2]; 12 mg/day BID, N = 3): 1 (33.3) n (%) | Disease control rate ([2]; 12 mg/day BID, N = 3): 1 (33.3) n (%) | Objective response rate ([2]; 12 mg/day BID, N = 3): 0 (0.0) n (%) | Best overall response: Not evaluable ([2]; 12 mg/day QD, N = 1): 0 (0.0) n (%) | Best overall response: Partial response ([2]; 12 mg/day QD, N = 1): 0 (0.0) n (%) | Best overall response: Progression disease ([2]; 12 mg/day QD, N = 1): 1 (100.0) n (%) | Best overall response: Stable disease ([2]; 12 mg/day QD, N = 1): 0 (0.0) n (%) | Disease control rate ([2]; 12 mg/day QD, N = 1): 0 (0.0) n (%) | Objective response rate ([2]; 12 mg/day QD, N = 1): 0 (0.0) n (%) | Best overall response: Not evaluable ([2]; Total, N = 87): 3 (3.4) n (%) | Best overall response: Partial response ([2]; Total, N = 87): 24 (27.6) n (%) | Best overall response: Progression disease ([2]; Total, N = 87): 31 (35.6) n (%) | Best overall response: Stable disease ([2]; Total, N = 87): 29 (33.3) n (%) | Disease control rate ([2]; Total, N = 87): 53 (60.9) n (%) | Objective response rate ([2]; Total, N = 87): 24 (27.6) n (%)
